According to patent US20260083864A1, “CONTRAST AGENTS FOR USE IN DIAGNOSTIC COMPUTED TOMOGRAPHY IMAGING” (Bayer Aktiengesellschaft, priority 2022, published 2026):

Tests used:
[1] = Excretion study in rats (5 days) and residual gadolinium organ distribution (7 days); type: in vivo, rat; details: 0.1 mmol Gd/kg bw i.v.; for Σ organs and carcass [% Dose]: 7 d post injection
Experimental: The excretion and organ distribution of Example 1 and 15 were determined in male rats (Han-Wistar, n=3). The compound was administered as a sterile aqueous solution (50 mmol Gd/L) as a bolus in the tail vein of the animals. The dose was 0.1 mmol Gd/kg bw. Urine was collected in the following time periods 0-1 h, 1-3 h, 3-6 h, 6-24 h, 1-2d and 2-5d post injection […] and feces 0-1d, 1-2d and 2-5d post injection. As a control, 3 animals were treated in the same way with RC1. On day 7 the animals were sacrificed, and the following organs were excised: blood, liver, kidney, spleen, heart, lung, brain, muscle, skin, stomach, gut, bone and bone marrow. The remaining carcass was freeze dried and ground to a fine powder. The Gd concentration in the organs and the carcass was determined by ICP-MS (ICP-MS Agilent 7500a, Waldbronn, Germany). The compounds are excreted via dual pathway (liver and kidney). Less than 1% of the administered dose was present in the body 7 days after the injection.

plasma proteins [2] = assay: Plasma protein binding, equilibrium dialysis, rat; type: in vitro ADME
Text: (§1) The binding of Example 1 and 15 to plasma proteins of different species (human, dog, monkey, rabbit, mouse and rat) was investigated in vitro by using equilibrium dialysis in reusable 96-well Micro-Equilibrium Dialysis Devices (ht dialysis) (Banker M J et al. J Pharm Sci. 2003 May; 92 (5): 967-74).

[3] = In vivo pharmacokinetics following i.v. administration in rat
Experimental: Pharmacokinetic parameters of Example 1 and 15 and were determined in male and female rats (Han-Wistar, n=4). […] The samples were digested using strong acidic and oxidizing conditions at elevated temperature following dilution in 1% nitric acid to bring the samples in the quantification range of the method. The lower limit of quantitation amounts to 1 nmol/L for all elements and the upper limit to 1000 nmol/L in the diluted sample.
The fit of the obtained data to a three-compartment model (Phoenix, WinNonlin 6.4, 3-compartment mode) yielded the pharmacokinetic parameters which are shown in Table 8.

plasma proteins [4] = assay: Plasma protein binding, equilibrium dialysis, dog; type: in vitro ADME
Text: as §1

[5] = Partition coefficient (log P butanol/buffer); type: physicochemical; details: 1-butanol / 50 mM Tris-HCl, pH 7.4, room temperature
[6] = Biliary elimination in bile duct cannulated (BDC) rats; details: 0.1 mmol Gd/kg bw i.v.
Experimental: All animals are initially anesthetized using a body weight-adjusted intramuscular injection of a mixture (1+2) of xylazine hydrochloride (20 mg/mL, Rompun 2%, Bayer Vital GmbH, Leverkusen) and ketamine hydrochloride (100 mg/mL, Ketavet, Pfizer, Pharmacia GmbH, Berlin) using 1 mL/kg body weight. The continuous anesthesia of the animals is achieved by the intravenous injection of 1.5 mL per hour (Braun perfusor infusion of 1+2, 1:20 saline, xylazine hydrochloride 20 mg/mL, Rompun 2%, Bayer Vital GmbH, Leverkusen and ketamine hydrochloride 100 mg/mL, Ketavet, Pfizer, Pharmacia GmbH, Berlin) via tail vein (Introcan, 24G, yellow). The animals received 0.1 mmol Gd/kg bw as intravenous bolus injection via tail vein (50 mmol Gd/L formulation). Bile was sampled 0-0.5 h, 0.5-1 h, 1-2 h, 2-3 h und 3-4 h post injection. […] The bile fractions (n=3 times 10 μL) were dried for 2 h at 90° C. and 50 μL 65% nitric acid (HNO3, Fa. Fisher, Optima Grade #1219010) and 30 μL hydrogen peroxide 30% (H2O2 Fa VWR Chemicals, AnalaR NORMAPUR, #18J024022) were added and processed in microwave oven (5 cycles: 5 min 40W, 5 min 120W, 10 min 200W, 10 min 320W and 25 min 400W, Fa. CEM, Mars5 Xpress).

[7] = reference compounds, 1.5 T, 37° C., bovine plasma instead of human plasma, from Rohrer et al.; cited from earlier work
[8] = reference compounds, 1.5 T, 37° C., from Rohrer et al.; cited from earlier work

SMILES	Total recovery [% Dose] [1]	Excretion in urine [% Dose] ([1]; 0-1 h post injection)	Excretion in feces [% Dose] ([1]; 0-1 d post injection)	Excretion in urine [% Dose] ([1]; 1-3 h post injection)	Excretion in feces [% Dose] ([1]; 1-2 d post injection)	Excretion in urine [% Dose] ([1]; 1-2 d post injection)	Excretion in feces [% Dose] ([1]; 2-5 d post injection)	Excretion in urine [% Dose] ([1]; 2-5 d post injection)	Excretion in urine [% Dose] ([1]; 3-6 h post injection)	Excretion in urine [% Dose] ([1]; 6-24 h post injection)	Σ organs and carcass [% Dose] [1]	Fraction unbound fu (plasma proteins [2])	Clplasma Plasma clearance ([3]; dose 25 μmol/kg bw)	Vss Volume of distribution at steady state ([3]; dose 25 μmol/kg bw)	t½ α Half-life, compartment V1 ([3]; dose 25 μmol/kg bw)	t½ β Half-life, compartment V2 ([3]; dose 25 μmol/kg bw)	t½ γ Half-life, compartment V3 ([3]; dose 25 μmol/kg bw)	Fraction unbound fu (plasma proteins [4])	Log P (partition coefficient butanol/buffer) [5]	other results
CCOCCOCCOc1ccc(CCC[C@@H](C(=O)O)N2CCN([C@@H](CO)C(=O)[O-])CCN([C@@H](CO)C(=O)[O-])CCN([C@@H](CO)C(=O)[O-])CC2)cc1.[Gd+3] [Example 15, gadolinium (2S,2′S,2″S)-2,2′,2″-{10-[(1S)-1-carboxy-4-{4-[2-(2-ethoxyethoxy)ethoxy]phenyl}butyl]-1,4,7,10-tetraazacyclododecane-1,4,7-triyl}tris(3-hydroxypropanoate)]	97.9 ± 5.4%	12.6 ± 11.1%	78.6 ± 6.2%	17.3 ± 3.4%	80.0 ± 5.3%	17.7 ± 3.3%	80.0 ± 5.3%	17.7 ± 3.3%	17.4 ± 3.3%	17.6 ± 3.3%	0.11 ± 0.03%	71%	45 mL/min/kg	0.4 L/kg	3 min	12 min	588 min	91%	−1.00	AUCnorm Area under the curve ([3]; dose 25 μmol/kg bw): 0.38 kg·h/L
CCOc1ccc(CCOCC(C(=O)O)N2CCN(CC(=O)[O-])CCN(CC(=O)[O-])CCN(CC(=O)[O-])CC2)cc1.[Gd+3] (centres unmarked) [Example 1, gadolinium 2,2′,2″-(10-{1-carboxy-2-[2-(4-ethoxyphenyl)ethoxy]ethyl}-1,4,7,10-tetraazacyclododecane-1,4,7-triyl)triacetate]	98.6 ± 2.1%	39.8 ± 6.8%	55.6 ± 5.6%	40.3 ± 6.8%	56.9 ± 6.6%	40.9 ± 7.4%	57.0 ± 6.6%	40.9 ± 7.4%	40.3 ± 6.8%	40.8 ± 7.4%	0.65 ± 0.07%	92%	26.7 mL/min/kg	0.4 L/kg	1.8 min	13 min	114 min	96%	−0.98	AUC∞ Area under the curve ([3]; dose 25 μmol/kg bw): 16 µM·h; AUC∞ Area under the curve ([3]; dose 250 μmol/kg bw): 315 µM·h; Clplasma Plasma clearance ([3]; dose 250 μmol/kg bw): 13 mL/min/kg; Vss Volume of distribution at steady state ([3]; dose 250 μmol/kg bw): 0.2 L/kg; t½ α Half-life, compartment V1 ([3]; dose 250 μmol/kg bw): 3 min; t½ β Half-life, compartment V2 ([3]; dose 250 μmol/kg bw): 11 min; t½ γ Half-life, compartment V3 ([3]; dose 250 μmol/kg bw): 396 min; Biliary excretion, % of injected dose, Mean ± SD (cumulative) ([6]; bile fraction 0-0.5 h): 55.5 ± 1.7%; Biliary excretion, % of injected dose, Mean ± SD (cumulative) ([6]; bile fraction 0.5-1 h): 62.6 ± 0.7%; Biliary excretion, % of injected dose, Mean ± SD (cumulative) ([6]; bile fraction 1-2 h): 65.1 ± 1.3%; Biliary excretion, % of injected dose, Mean ± SD (cumulative) ([6]; bile fraction 2-3 h): 65.6 ± 1.6%; Biliary excretion, % of injected dose, Mean ± SD (cumulative) ([6]; bile fraction 3-4 h): 65.8 ± 1.7%
CCOCCOCCOc1ccc(CC(C(=O)O)N2CCN(CC(=O)[O-])CCN(CC(=O)[O-])CCN(CC(=O)[O-])CC2)cc1.[Gd+3] (centres unmarked) [Example 2, gadolinium 2,2′,2″-{10-[1-carboxy-2-{4-[2-(2-ethoxyethoxy)ethoxy]phenyl}ethyl]-1,4,7,10-tetraazacyclododecane-1,4,7-triyl}triacetate]												>95%						>95%	−1.63	
CCOc1ccc(CC(CN(CCN(CC(=O)[O-])CC(=O)[O-])CC(=O)[O-])N(CC(=O)[O-])CC(=O)[O-])cc1.[Gd+3].[Na+].[Na+] (centres unmarked) [RC1, gadoxetate disodium, reference compound]	104.6 ± 2.4%	23.2 ± 1.6%	77.5 ± 2.7%	23.5 ± 1.5%	80.6 ± 2.9%	23.7 ± 1.5%	80.8 ± 2.9%	23.7 ± 1.5%	23.6 ± 1.5%	23.7 ± 1.5%	0.14 ± 0.08%								−2.12	r1 plasma (r1 human plasma) [7]: 5.2 L/mmol/s; AUCnorm Area under the curve ([3]; dose 100 μmol/kg bw): 0.40 kg·h/L; Clplasma Plasma clearance ([3]; dose 100 μmol/kg bw): 40 mL/min/kg; Vss Volume of distribution at steady state ([3]; dose 100 μmol/kg bw): 0.9 L/kg; t½ α Half-life, compartment V1 ([3]; dose 100 μmol/kg bw): 2 min; t½ β Half-life, compartment V2 ([3]; dose 100 μmol/kg bw): 8 min; t½ γ Half-life, compartment V3 ([3]; dose 100 μmol/kg bw): 390 min; r1 water [8]: 3.3 L/mmol/s
